Experimental data reported in DBAASP.
Values after ≈ are worked out from the molar mass of the structure shown.

Tests used:
Assay in all cases: ≥ marks a high value that may be exact or a test limit, other limits are often not marked, values filed in µg/mL are converted to µM
[1] = tested on: Escherichia coli HB101
[2] = tested on: Leishmania major MHOM/IL/67/JERICHO-II
[3] = tested on: Staphylococcus aureus Cowan 1
[4] = tested on: Bacillus subtilis DSM 347
[5] = tested on: Escherichia coli DH5alpha
[6] = tested on: Franconibacter helveticus DSM 18396
[7] = tested on: Kocuria rhizophila DSM 348
[8] = tested on: Bacillus cereus C737
[9] = tested on: Escherichia coli UB1005
[10] = tested on: Pseudomonas aeruginosa PAO1
[11] = tested on: Aeromonas hydrophila
[12] = tested on: Bacillus subtilis
[13] = tested on: Escherichia coli
[14] = tested on: Staphylococcus aureus
[15] = tested on: Vibrio harveyi
[16] = tested on: Vibrio parahaemolyticus
[17] = tested on: Bacillus subtilis CMCC 63501
[18] = tested on: Enterococcus faecalis ATCC 29212
[19] = tested on: Escherichia coli ATCC 25922
[20] = tested on: Salmonella enterica subsp. enterica serovar Pullorum C79-13
[21] = tested on: Salmonella enterica subsp. enterica serovar Typhimurium ATCC 14028
[22] = tested on: Staphylococcus aureus ATCC 29213
[23] = tested on: Staphylococcus epidermidis ATCC 12228

Work on `CC[C@H](C)[C@H](NC(=O)[C@@H](NC(=O)[C@H](CC(=O)O)NC(=O)[C@H](C)NC(=O)[C@H](C)NC(=O)[C@H](C)NC(=O)CNC(=O)[C@H](CC(C)C)NC(=O)[C@H](C)NC(=O)[C@H](C)NC(=O)[C@H](CCCCN)NC(=O)CNC(=O)[C@H](C)NC(=O)[C@H](Cc1cnc[nH]1)NC(=O)[C@H](CC(C)C)NC(=O)[C@H](C)NC(=O)[C@H](CCSC)NC(=O)[C@@H](NC(=O)CNC(=O)[C@H](CC(C)C)NC(=O)[C@H](CCCCN)NC(=O)[C@H](CCCCN)NC(=O)[C@H](CC(C)C)NC(=O)[C@H](CCSC)NC(=O)[C@@H](NC(=O)[C@H](CCCCN)NC(=O)[C@H](Cc1c[nH]c2ccccc12)NC(=O)[C@H](CC(C)C)NC(=O)[C@H](C)N)[C@@H](C)O)[C@@H](C)O)[C@@H](C)O)C(N)=O` [ALWKTMLKKLGTMALHAGKAALGAAADTI] yielded an MIC [1] of 2.7 µM (≈ 7.97 µg/mL), an MIC [2] of 6.1 µM (≈ 18 µg/mL) and an MIC [3] of 2.7 µM (≈ 7.97 µg/mL).
Compound `CSCC[C@H](NC(=O)[C@@H](NC(=O)CNC(=O)[C@H](CC(C)C)NC(=O)[C@H](CCCCN)NC(=O)[C@H](CCCCN)NC(=O)[C@H](CC(C)C)NC(=O)[C@H](CCSC)NC(=O)[C@@H](NC(=O)[C@H](CCCCN)NC(=O)[C@H](Cc1c[nH]c2ccccc12)NC(=O)[C@H](CC(C)C)NC(=O)[C@H](C)N)[C@@H](C)O)[C@@H](C)O)C(=O)N[C@@H](C)C(=O)N[C@@H](CC(C)C)C(=O)N[C@@H](Cc1cnc[nH]1)C(=O)N[C@@H](C)C(=O)NCC(=O)N[C@@H](CCCCN)C(N)=O` [ALWKTMLKKLGTMALHAGK] has an MIC [1] of 3.6 µM (≈ 7.55 µg/mL), an MIC [2] of 17.9 µM (≈ 37.5 µg/mL) and an MIC [3] of at least 35.9 µM.
`CC[C@H](C)[C@H](NC(=O)CN)C(=O)NCC(=O)N[C@@H](CCCCN)C(=O)N[C@@H](Cc1ccccc1)C(=O)N[C@@H](CC(C)C)C(=O)N[C@@H](Cc1cnc[nH]1)C(=O)N[C@@H](CO)C(=O)N[C@@H](C)C(=O)N[C@@H](CCCCN)C(=O)N[C@@H](CCCCN)C(=O)N[C@@H](C)C(=O)NCC(=O)N[C@@H](CCCCN)C(=O)N[C@@H](C)C(=O)N[C@@H](Cc1ccccc1)C(=O)N[C@H](C(=O)NCC(=O)N[C@@H](CCC(=O)O)C(=O)N[C@H](C(=O)N[C@@H](CCSC)C(=O)N[C@@H](CC(N)=O)C(=O)N[C@@H](CO)C(=O)O)[C@@H](C)CC)C(C)C` [GIGKFLHSAKKAGKAFVGEIMNS] was tested, and the MIC [4] was 8 µM (≈ 19.1 µg/mL), the MIC [5] was at least 64 µM and the MIC [6] was at least 64 µM. It also gave an MIC [7] of at least 64 µM.
For `CC[C@H](C)[C@H](NC(=O)CN)C(=O)NCC(=O)N[C@@H](CCCCN)C(=O)N[C@@H](Cc1ccccc1)C(=O)N[C@@H](CC(C)C)C(=O)N[C@@H](Cc1cnc[nH]1)C(=O)N[C@@H](CO)C(=O)N[C@@H](C)C(=O)N[C@@H](CCCCN)C(=O)N[C@@H](CCCCN)C(=O)N[C@@H](Cc1ccccc1)C(=O)NCC(=O)N[C@@H](CCCCN)C(=O)N[C@@H](C)C(=O)N[C@@H](Cc1ccccc1)C(=O)N[C@H](C(=O)N[C@@H](C)C(=O)N[C@@H](CCC(=O)O)C(=O)N[C@H](C(=O)N[C@@H](CCSC)C(=O)N[C@@H](CC(N)=O)C(=O)N[C@@H](CO)C(=O)O)[C@@H](C)CC)C(C)C` [GIGKFLHSAKKFGKAFVAEIMNS], the MIC [4] was 1 µM (≈ 2.48 µg/mL), the MIC [5] was 16 µM (≈ 39.7 µg/mL) and the MIC [6] was 8 µM (≈ 19.8 µg/mL). It also gave an MIC [7] of 8 µM (≈ 19.8 µg/mL).
With `CC[C@H](C)[C@H](NC(=O)[C@H](CC(=O)O)NC(=O)[C@H](Cc1ccccc1)NC(=O)[C@H](CC(C)C)NC(=O)CN)C(=O)N[C@H](C(=O)N[C@@H](CCCCN)C(=O)N[C@@H](CCCCN)C(=O)N[C@H](C(=O)N[C@H](C(=O)NCC(=O)N[C@@H](C)C(=O)N[C@@H](C)C(=O)NCC(=O)N[C@@H](CO)C(=O)N[C@@H](CC(C)C)C(N)=O)C(C)C)C(C)C)C(C)C` [GLFDIVKKVVGAAGSL] the MIC [8] was at least 81.3 µM, the MIC [9] was at least 81.3 µM and the MIC [10] was over 81.3 µM.
`CC[C@H](C)[C@H](NC(=O)[C@H](CC(C)C)NC(=O)[C@H](CCC(=O)O)NC(=O)CNC(=O)[C@H](CC(C)C)NC(=O)[C@H](Cc1cnc[nH]1)NC(=O)CNC(=O)[C@H](CCCCN)NC(=O)[C@@H](NC(=O)[C@H](Cc1ccccc1)NC(=O)[C@H](CCCCN)NC(=O)[C@H](CCCCN)NC(=O)[C@H](CS)NC(=O)[C@H](CC(C)C)NC(=O)[C@H](CO)NC(=O)[C@H](CCCCN)NC(=O)[C@H](CC(C)C)NC(=O)[C@H](CC(C)C)NC(=O)CN)C(C)C)C(=O)N[C@@H](CCC(=O)O)C(=O)N[C@@H](CCC(=O)O)C(=O)N[C@@H](CC(C)C)C(=O)N[C@H](C(=O)N[C@H](C(=O)N[C@@H](CO)C(=O)N[C@@H](CC(=O)O)C(=O)N[C@@H](CC(=O)O)C(=O)O)[C@@H](C)O)[C@@H](C)O` [GLLKSLCKKFVKGHLGELIEELTTSDD] gave an MIC [11] of at least 96 µM, an MIC [12] of at least 33.9 µM and an MIC [13] of 17 µM (≈ 50.5 µg/mL). It also gave an MIC [14] of 17 µM (≈ 50.5 µg/mL), an MIC [15] of 17 µM (≈ 50.5 µg/mL) and an MIC [16] of at least 96 µM.
`CC[C@H](C)[C@H](NC(=O)[C@H](C)NC(=O)[C@H](CC(C)C)NC(=O)[C@@H]1CCCN1C(=O)[C@@H](NC(=O)[C@H](CC(C)C)NC(=O)[C@H](CCC(N)=O)NC(=O)[C@H](Cc1c[nH]c2ccccc12)NC(=O)[C@H](Cc1ccccc1)NC(=O)[C@H](CCCN=C(N)N)NC(=O)[C@@H](N)CCCCN)C(C)C)C(=O)N[C@@H](CCCCN)C(=O)N[C@H](C(=O)N[C@@H](Cc1ccc(O)cc1)C(=O)N[C@@H](CCCN=C(N)N)C(=O)N[C@@H](C)C(=O)N[C@@H](Cc1c[nH]c2ccccc12)C(=O)N[C@@H](CCCCN)C(=O)N[C@@H](CCCN=C(N)N)C(=O)N[C@@H](CCCN=C(N)N)C(=O)O)[C@@H](C)CC` [KRFWQLVPLAIKIYRAWKRR] gave an MIC [17] of 8 µM (≈ 21 µg/mL), an MIC [18] of 4 µM (≈ 10.5 µg/mL) and an MIC [19] of 2 µM (≈ 5.26 µg/mL). The MIC [9] was 2 µM (≈ 5.26 µg/mL), the MIC [20] was 8 µM (≈ 21 µg/mL) and the MIC [21] was 4 µM (≈ 10.5 µg/mL). For the same compound, the MIC [22] was 4 µM (≈ 10.5 µg/mL) and the MIC [23] was 4 µM (≈ 10.5 µg/mL).
In the case of `CC[C@H](C)[C@H](NC(=O)[C@H](CCC(=O)O)NC(=O)[C@H](CC(N)=O)NC(=O)[C@H](CS)NC(=O)[C@@H](N)C(C)C)C(=O)NCC(=O)N[C@@H](CC(C)C)C(=O)N[C@@H](CC(C)C)C(=O)N[C@@H](CCCCN)C(=O)N[C@@H](CO)C(=O)N[C@@H](CC(C)C)C(=O)N[C@@H](CS)C(=O)N[C@@H](CCCCN)C(=O)N[C@@H](CCCCN)C(=O)N[C@@H](Cc1ccccc1)C(=O)N[C@H](C(=O)N[C@@H](CCCCN)C(=O)NCC(=O)N[C@@H](Cc1cnc[nH]1)C(=O)N[C@@H](CC(C)C)C(=O)NCC(=O)N[C@@H](CCC(=O)O)C(=O)O)C(C)C` [VCNEIGLLKSLCKKFVKGHLGE], the MIC [11] was at least 96 µM, the MIC [12] was at least 96 µM and the MIC [13] was 33.9 µM (≈ 82 µg/mL). It also gave an MIC [14] of 17 µM (≈ 41 µg/mL), an MIC [15] of at least 96 µM and an MIC [16] of at least 96 µM.
